# Experimental data reported in ChEMBL document CHEMBL2440076, “New triarylpyrazoles as broad-spectrum anticancer agents: design, synthesis, and biological evaluation” (Eur J Med Chem, 2013).
# What was measured:
# [1] = system: BT-549; assay: Growth inhibition of human BT549 cells assessed as cell growth at 10 uM after 48 hrs by sulforhodamine B assay; format: functional; details: BT-549, 48 h, read-out: Activity
# [2] = system: PC-3; assay: Growth inhibition of human PC3 cells assessed as cell growth at 10 uM after 48 hrs by sulforhodamine B assay; format: functional; details: PC-3, 48 h, read-out: Activity
# [3] = system: CAKI-1; assay: Growth inhibition of human CAKI-1 cells assessed as cell growth at 10 uM after 48 hrs by sulforhodamine B assay; format: functional; details: CAKI-1, 48 h, read-out: Activity
# [4] = Growth inhibition of human HCC2998 cells after 48 hrs by sulforhodamine B assay; format: functional; details: HCC 2998, 48 h
# [5] = system: NCI-H23; assay: Growth inhibition of human NCI-H23 cells after 48 hrs by sulforhodamine B assay; format: functional; details: NCI-H23, 48 h
# [6] = system: NCI-H226; assay: Growth inhibition of human NCI-H226 cells after 48 hrs by sulforhodamine B assay; format: functional; details: NCI-H226, 48 h
# [7] = system: HOP-62; assay: Growth inhibition of human HOP62 cells after 48 hrs by sulforhodamine B assay; format: functional; details: HOP-62, 48 h
# [8] = system: MOLT-4; assay: Growth inhibition of human MOLT4 cells after 48 hrs by sulforhodamine B assay; format: functional; details: MOLT-4, 48 h
# [9] = system: K562; assay: Growth inhibition of human K562 cells after 48 hrs by sulforhodamine B assay; format: functional; details: K562, 48 h
# [10] = system: SK-OV-3; assay: Growth inhibition of human SKOV3 cells assessed as cell growth at 10 uM after 48 hrs by sulforhodamine B assay; format: functional; details: SK-OV-3, 48 h, read-out: Activity
# [11] = Growth inhibition of human NCI-ADR-RES cells assessed as cell growth at 10 uM after 48 hrs by sulforhodamine B assay; format: functional; details: read-out: Activity
# [12] = system: MDA-MB-435; assay: Growth inhibition of human MDA-MB-435 cells assessed as cell growth at 10 uM after 48 hrs by sulforhodamine B assay; format: functional; details: MDA-MB-435, 48 h, read-out: Activity
# [13] = system: LOX IMVI; assay: Growth inhibition of human LOXIMVI cells assessed as cell growth at 10 uM after 48 hrs by sulforhodamine B assay; format: functional; details: read-out: Activity
# [14] = system: U-251; assay: Growth inhibition of human U251 cells assessed as cell growth at 10 uM after 48 hrs by sulforhodamine B assay; format: functional; details: U-251, 48 h, read-out: Activity
# [15] = system: SF-268; assay: Growth inhibition of human SF268 cells assessed as cell growth at 10 uM after 48 hrs by sulforhodamine B assay; format: functional; details: SF-268, 48 h, read-out: Activity
# [16] = system: COLO 205; assay: Growth inhibition of human COLO205 cells assessed as cell growth at 10 uM after 48 hrs by sulforhodamine B assay; format: functional; details: COLO 205, 48 h, read-out: Activity
# [17] = system: NCI-H522; assay: Growth inhibition of human NCI-H522 cells assessed as cell growth at 10 uM after 48 hrs by sulforhodamine B assay; format: functional; details: NCI-H522, 48 h, read-out: Activity
# [18] = system: NCI-H23; assay: Growth inhibition of human NCI-H23 cells assessed as cell growth at 10 uM after 48 hrs by sulforhodamine B assay; format: functional; details: NCI-H23, 48 h, read-out: Activity
# [19] = system: NCI-H322M; assay: Growth inhibition of human NCI-H322M cells assessed as cell growth at 10 uM after 48 hrs by sulforhodamine B assay; format: functional; details: read-out: Activity
# [20] = system: HOP-92; assay: Growth inhibition of human HOP92 cells assessed as cell growth at 10 uM after 48 hrs by sulforhodamine B assay; format: functional; details: HOP-92, 48 h, read-out: Activity
# [21] = system: MCF7; assay: Growth inhibition of human MCF7 cells after 48 hrs by sulforhodamine B assay; format: functional; details: MCF7, 48 h
# [22] = system: MDA-MB-231; assay: Growth inhibition of human MDA-MB-231 cells after 48 hrs by sulforhodamine B assay; format: functional; details: MDA-MB-231, 48 h
# [23] = system: UO-31; assay: Growth inhibition of human UO31 cells after 48 hrs by sulforhodamine B assay; format: functional; details: UO-31, 48 h
# [24] = system: OVCAR-5; assay: Growth inhibition of human OVCAR5 cells after 48 hrs by sulforhodamine B assay; format: functional; details: OVCAR-5, 48 h
# [25] = system: IGROV-1; assay: Growth inhibition of human IGROV1 cells after 48 hrs by sulforhodamine B assay; format: functional; details: IGROV-1, 48 h
# [26] = system: UACC-62; assay: Growth inhibition of human UACC62 cells after 48 hrs by sulforhodamine B assay; format: functional; details: UACC-62, 48 h
# [27] = system: SK-MEL-28; assay: Growth inhibition of human SK-MEL-28 cells after 48 hrs by sulforhodamine B assay; format: functional; details: SK-MEL-28, 48 h
# [28] = system: SK-MEL-2; assay: Growth inhibition of human SK-MEL-2 cells after 48 hrs by sulforhodamine B assay; format: functional; details: SK-MEL-2, 48 h
# [29] = system: Malme-3M; assay: Growth inhibition of human MALME-3M cells after 48 hrs by sulforhodamine B assay; format: functional
# [30] = system: LOX IMVI; assay: Growth inhibition of human LOXIMVI cells after 48 hrs by sulforhodamine B assay; format: functional
# [31] = system: SF-268; assay: Growth inhibition of human SF268 cells after 48 hrs by sulforhodamine B assay; format: functional; details: SF-268, 48 h
# [32] = system: SF-295; assay: Growth inhibition of human SF295 cells after 48 hrs by sulforhodamine B assay; format: functional, cell-based; details: SF-295, 48 h
# [33] = system: HOP-62; assay: Growth inhibition of human HOP62 cells assessed as cell growth at 10 uM after 48 hrs by sulforhodamine B assay; format: functional; details: HOP-62, 48 h, read-out: Activity
# [34] = system: HL-60(TB); assay: Growth inhibition of human HL-60(TB) cells assessed as cell growth at 10 uM after 48 hrs by sulforhodamine B assay; format: functional; details: HL-60, 48 h, read-out: Activity
# [35] = read-out: LC50 (the source's name)
structure (smiles),measurement,setting,value
COc1cc(-c2nn(-c3cccc(NC(=O)Nc4cc(C(F)(F)F)cc(C(F)(F)F)c4)c3)cc2-c2ccncc2)ccc1Cl,growth at 10 µM,[1],-8.96%
same,growth at 10 µM,[2],-55.2%
same,growth at 10 µM,[3],18.5%
same,GI50,[4],931 nM
same,TGI,[4],1870 nM
same,CC50,[4]; [35],3760 nM
same,GI50,[5],1090 nM
same,LC50,[5],29600 nM
same,TGI,[5],3340 nM
same,GI50,[6],1360 nM
same,TGI,[6],21800 nM
same,CC50,[6]; [35],> 50000 nM
same,GI50,[7],855 nM
same,TGI,[7],1590 nM
same,CC50,[7]; [35],2950 nM
same,GI50,[8],1080 nM
same,TGI,[8],4480 nM
same,CC50,[8]; [35],> 50000 nM
same,GI50,[9],363 nM
same,TGI,[9],3250 nM
same,CC50,[9]; [35],> 50000 nM
same,growth at 10 µM,[10],-9.79%
same,growth at 10 µM,[11],1.11%
same,growth at 10 µM,[12],-58.3%
same,growth at 10 µM,[13],-91.3%
same,growth at 10 µM,[14],-81.8%
same,growth at 10 µM,[15],-46.3%
same,growth at 10 µM,[16],-98.7%
same,growth at 10 µM,[17],-34.4%
same,growth at 10 µM,[18],-3.3%
same,growth at 10 µM,[19],26.1%
same,growth at 10 µM,[20],-50.2%
same,GI50,[21],933 nM
same,LC50,[21],> 50000 nM
same,TGI,[21],10900 nM
same,GI50,[22],664 nM
same,LC50,[22],3000 nM
same,TGI,[22],1410 nM
same,GI50,[23],600 nM
same,TGI,[23],1280 nM
same,CC50,[23]; [35],2730 nM
same,GI50,[24],937 nM
same,LC50 (concentration killing 50% of cells),[24],12000 nM
same,TGI,[24],2470 nM
same,GI50,[25],826 nM
same,LC50 (concentration killing 50% of cells),[25],23700 nM
same,TGI,[25],2190 nM
same,GI50,[26],661 nM
same,LC50 (50% lethal concentration),[26],3780 nM
same,TGI,[26],1580 nM
same,GI50,[27],851 nM
same,LC50,[27],3380 nM
same,TGI,[27],1700 nM
same,GI50,[28],1020 nM
same,LC50 (50% lethal concentration),[28],3710 nM
same,TGI,[28],1950 nM
same,GI50,[29],892 nM
same,LC50 (concentration killing 50% of starting cells),[29],7680 nM
same,TGI,[29],2170 nM
same,GI50,[30],783 nM
same,LC50,[30],2940 nM
same,TGI,[30],1520 nM
same,GI50,[31],978 nM
same,TGI,[31],2430 nM
same,CC50,[31]; [35],> 50000 nM
same,GI50,[32],399 nM
same,IC50,[32],400 nM
same,TGI,[32],1230 nM
same,CC50,[32]; [35],3310 nM
same,growth at 10 µM,[33],-77.6%
same,growth at 10 µM,[34],-20.2%
